# Measured values published in PMC5833756, “A novel ruthenium complex with xanthoxylin induces S-phase arrest and causes ERK1/2-mediated apoptosis in HepG2 cells through a p53-independent pathway” (Cell Death & Disease, 2018).
# Where two headings read alike, the source gives them in different places. Marks after values point to notes of the source that are not given here.
# Legend:
# [1] = system: HCT116; type: cell-based, human
# [2] = system: HT-29; type: cell-based, human
# [3] = system: MCF-7; type: cell-based, human
# [4] = system: HepG2; type: cell-based, human
# [5] = system: HSC-3; type: cell-based, human
# [6] = system: SCC-9; type: cell-based, human
# [7] = system: SCC-15; type: cell-based, human
# [8] = system: SCC-25; type: cell-based, human
# [9] = system: ACP-02; type: cell-based, human
# [10] = system: ACP-03; type: cell-based, human
# [11] = system: K-562; type: cell-based, human
# [12] = system: MRC-5; type: cell-based; conditions: MRC5; MRC-5 (human lung fibroblast, non-cancer), 72 h
# [13] = system: HaCAT; type: cell-based; conditions: HaCAT (human keratinocyte, non-cancer), 72 h
# [14] = system: calf thymus DNA; assay: DNA intercalation assay (ethidium bromide displacement); type: binding; conditions: 20 μM, cell-free, 15 min
# Description: DNA intercalation was assessed by examining the ability of the complex to displace ethidium bromide from ctDNA (Sigma-Aldrich)[36]. […] After a 15 min of incubation at room temperature, fluorescence was measured using the excitation and emission wavelengths of 320 nm and 600 nm, respectively, using the Spectramax Microplate Reader (Molecular Devices).
# [15] = system: HepG2 cells; type: cell-based, human; conditions: DOX 2 µM, OXA 10 µM, RCX 12 µM
# Description: Briefly, the cells were harvested in a permeabilization solution containing 0.1% Triton X-100, 2 µg/mL PI, 0.1% sodium citrate and 100 µg/mL RNAse (all from Sigma-Aldrich) and incubated in the dark for 15 min at room temperature. Finally, cell fluorescence was measured by flow cytometry with a BD LSRFortessa cytometer using BD FACSDiva Software (BD Biosciences) and FlowJo Software 10 (FlowJo Lcc; Ashland, OR, USA). Ten thousand events were evaluated per experiment, and cellular debris was omitted from the analysis.
# [16] = system: AGP-01; conditions: AGP-01 (human ascitic gastric adenocarcinoma), 72 h
# [17] = i.p. 21 days, DOX 0.3 mg/kg, 5-FU 10 mg/kg, RCX 2.5 mg/kg
# [18] = peripheral blood, i.p. 21 days, DOX 0.3 mg/kg, 5-FU 10 mg/kg, RCX 2.5 mg/kg
# 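Wherever Final body weight is given: mice bearing subcutaneous HepG2 xenografts, given intraperitoneal doses once daily for 21 days, weighed at start and end, blood leukocytes counted by light microscopy on day 22.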
# 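Wherever Initial body weight is given: mice bearing subcutaneous HepG2 xenografts, given intraperitoneal doses once daily for 21 days, weighed at start and end, blood leukocytes counted by light microscopy on day 22.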
# 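Wherever Survival is given: mice bearing subcutaneous HepG2 xenografts, given intraperitoneal doses once daily for 21 days, weighed at start and end, blood leukocytes counted by light microscopy on day 22.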
# 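Wherever lung histopathological characteristics is given: mice bearing subcutaneous HepG2 xenografts, given intraperitoneal doses once daily for 21 days, weighed at start and end, blood leukocytes counted by light microscopy on day 22.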
compound,measurement,setting,value
"COc1cccc2c1C(=O)c1c(O)c3c(c(O)c1C2=O)C[C@@](O)(C(=O)CO)C[C@@H]3O[C@H]1C[C@H](N)[C@H](O)[C@H](C)O1 [DOX, doxorubicin]",IC50,"[1]; HCT-116, HCT116 (human colon carcinoma), 72 h",0.2 µM
same,selectivity index (SI),[1]; IC50 HaCAT / IC50 HCT116,0.5
same,selectivity index (SI),[1]; IC50 MRC5 / IC50 HCT116,6.5
same,selectivity index (SI),[1]; IC50 PBMC / IC50 HCT116,26
same,IC50,"[2]; HT-29 (human colon adenocarcinoma), 72 h",0.3 µM
same,selectivity index (SI),[2]; IC50 HaCAT / IC50 HT-29,0.3
same,selectivity index (SI),[2]; IC50 MRC5 / IC50 HT-29,4.3
same,selectivity index (SI),[2]; IC50 PBMC / IC50 HT-29,17.3
same,selectivity index (SI),[3]; IC50 HaCAT / IC50 MCF-7,0.1
same,selectivity index (SI),[3]; IC50 MRC5 / IC50 MCF-7,1.2
same,selectivity index (SI),[3]; IC50 PBMC / IC50 MCF-7,4.7
same,IC50,"[3]; MCF7, MCF-7 (human breast adenocarcinoma), 72 h",1.1 µM
same,IC50,"[4]; HepG2 (human hepatocellular carcinoma), monolayer, 72 h",1.3 µM
same,selectivity index (SI),[4]; IC50 HaCAT / IC50 HepG2,0.1
same,selectivity index (SI),[4]; IC50 MRC5 / IC50 HepG2,1
same,selectivity index (SI),[4]; IC50 PBMC / IC50 HepG2,4
same,IC50,"[5]; HSC-3 (human oral squamous cell carcinoma), 72 h",0.4 µM
same,selectivity index (SI),[5]; IC50 HaCAT / IC50 HSC-3,0.3
same,selectivity index (SI),[5]; IC50 MRC5 / IC50 HSC-3,3.3
same,selectivity index (SI),[5]; IC50 PBMC / IC50 HSC-3,13
same,selectivity index (SI),[6]; IC50 HaCAT / IC50 SCC-9,0.04
same,selectivity index (SI),[6]; IC50 MRC5 / IC50 SCC-9,0.5
same,selectivity index (SI),[6]; IC50 PBMC / IC50 SCC-9,2
same,IC50,"[6]; SCC-9 (human oral squamous cell carcinoma), 72 h",2.6 µM
same,selectivity index (SI),[7]; IC50 HaCAT / IC50 SCC-15,0.1
same,selectivity index (SI),[7]; IC50 MRC5 / IC50 SCC-15,0.9
same,selectivity index (SI),[7]; IC50 PBMC / IC50 SCC-15,3.5
same,IC50,"[7]; SCC-15 (human oral squamous cell carcinoma), 72 h",1.5 µM
same,selectivity index (SI),[8]; IC50 HaCAT / IC50 SCC-25,0.1
same,selectivity index (SI),[8]; IC50 MRC5 / IC50 SCC-25,1.3
same,selectivity index (SI),[8]; IC50 PBMC / IC50 SCC-25,5.2
same,IC50,"[8]; SCC-25 (human oral squamous cell carcinoma), 72 h",1 µM
same,IC50,"[9]; ACP-02 (human gastric adenocarcinoma), 72 h",6.8 µM
same,selectivity index (SI),[9]; IC50 HaCAT / IC50 ACP-02,0.02
same,selectivity index (SI),[9]; IC50 MRC5 / IC50 ACP-02,0.2
same,selectivity index (SI),[9]; IC50 PBMC / IC50 ACP-02,0.8
same,IC50,"[10]; ACP-03 (human gastric adenocarcinoma), 72 h",2.4 µM
same,selectivity index (SI),[10]; IC50 HaCAT / IC50 ACP-03,0.04
same,selectivity index (SI),[10]; IC50 MRC5 / IC50 ACP-03,0.5
same,selectivity index (SI),[10]; IC50 PBMC / IC50 ACP-03,2.2
same,selectivity index (SI),[11]; IC50 HaCAT / IC50 K-562,0.1
same,selectivity index (SI),[11]; IC50 MRC5 / IC50 K-562,1.3
same,selectivity index (SI),[11]; IC50 PBMC / IC50 K-562,5.2
same,IC50,"[11]; K562, K-562 (human chronic myelogenous leukemia), 72 h",1 µM
same,IC50,[12],1.3 µM
same,IC50,[13],0.1 µM
same,displacement of ethidium bromide from ctDNA (fluorescence),[14],significantly reduced the fluorescence intensity
same,DNA content G0/G1,"[15]; HepG2, 12 h",51.9 ± 4.8%
same,DNA content G2/M,"[15]; HepG2, 12 h",22.6 ± 2.6%
same,DNA content S,"[15]; HepG2, 12 h",6.9 ± 0.1%
same,DNA content Sub-G0/G1,"[15]; HepG2, 12 h",13.4 ± 1.2 %
same,DNA content G0/G1,"[15]; HepG2, 24 h",20.9 ± 3.3 %
same,DNA content G2/M,"[15]; HepG2, 24 h",66.9 ± 5.5 %
same,DNA content S,"[15]; HepG2, 24 h",8.9 ± 2.3 %
same,DNA content Sub-G0/G1,"[15]; HepG2, 24 h",16.8 ± 4.3 %
same,DNA content G0/G1,"[15]; HepG2, 48 h",34.6 ± 2.7 %
same,DNA content G2/M,"[15]; HepG2, 48 h",31.1 ± 3.3 %
same,DNA content S,"[15]; HepG2, 48 h",9.1 ± 1.9%
same,DNA content Sub-G0/G1,"[15]; HepG2, 48 h",20.9 ± 1.0 %
same,DNA content G0/G1,"[15]; HepG2, 72 h",31.6 ± 5.1 %
same,DNA content G2/M,"[15]; HepG2, 72 h",16.3 ± 1.1%
same,DNA content S,"[15]; HepG2, 72 h",12.5 ± 1.1%
same,DNA content Sub-G0/G1,"[15]; HepG2, 72 h",46.6 ± 2.8 %
same,IC50,[16],1.9 µM
same,lung histopathological characteristics,"atelectasis, hemorrhage, inflammation, congestion, doxorubicin 0.3 mg/kg, RCX both doses, 21 days",more pronounced in the doxorubicin and RCX (both doses) groups than in the other groups
same,Initial body weight,"before treatment, DOX 0.3 mg/kg, 5-FU 10 mg/kg, RCX 2.5 mg/kg groups",22.3 ± 0.4 g
same,Final body weight,[17],19.5 ± 0.6 g
same,Survival,[17],14/14
same,Differential leukocytes: Eosinophils,[18],1.0%
same,Differential leukocytes: Lymphocytes,[18],49.3%
same,Differential leukocytes: Monocytes,[18],1.0%
same,Differential leukocytes: Neutrophils,[18],48.8%
same,Erythrocytes,[18],8.9 ± 0.7 10^6cells/μL
same,Total leukocytes,[18],1.5 ± 0.2* 10^3cells/μL
